Data set [1] in a line: Cytotoxicity against human TZM-bl cells by MTT assay. The format is cell-based. In general terms: Formazan colour is commonly taken as a measure of viable cells.
For data set [2], the system named is Human immunodeficiency virus 1. The data set is described as follows: Antiviral activity against R5 tropic HIV1 YU.2 infected in human TZM-b1 cells after 2 hrs by luciferase assay. The format is functional, organism-based. Conditions: Human immunodeficiency virus 1, YU.2, TZM-b1, 2 h.
The next data set relates to PBMC. The data set is described as follows: Cytotoxicity against human PBMC by MTT assay. The format is cell-based.
The test system of data set [3] is Human immunodeficiency virus 1. The data set can be described thus: Antiviral activity against X4 tropic HIV1 NL4.3 infected in human TZM-b1 cells after 2 hrs by luciferase assay. The format is functional, organism-based. Conditions: Human immunodeficiency virus 1, NL4.3, TZM-b1, 2 h.
In data set [4] the test system is Human immunodeficiency virus 1. The data set can be described thus: Ratio of IC50 for wild type HIV1 to IC50 for HIV1 A17 harboring reverse transcriptase K103N, Y181C mutant. The format is functional.
Data set [5] has as its system Human immunodeficiency virus 1. The data set can be described thus: Antiviral activity against HIV1 isolate 71361-1 harboring reverse transcriptase K65R mutant infected in human TZM-b1 cells after 2 hrs by luciferase assays. The format is functional, organism-based.
Data set [6] concerns Human immunodeficiency virus 1. The data set is described as follows: Antiviral activity against X4 tropic HIV1 RF infected in human TZM-b1 cells after 2 hrs by luciferase assay. The format is functional, organism-based. Conditions: Human immunodeficiency virus 1, RF, TZM-b1, 2 h.
Data set [7] deals with Human immunodeficiency virus 1. The data set is described as follows: Antiviral activity against R5 tropic HIV1 R8.BaL infected in human TZM-b1 cells after 2 hrs by luciferase assay. The format is functional, organism-based. Conditions: Human immunodeficiency virus 1, R8.BaL, TZM-b1, 2 h.
The subject of data set [8] is Human immunodeficiency virus 1. The data set is described as follows: Antiviral activity against HIV1 A17 harboring reverse transcriptase K103N, Y181C mutant infected in human TZM-b1 cells after 2 hrs by luciferase assays. The format is functional, organism-based.
The subject of data set [9] is Human immunodeficiency virus 1. The data set can be described thus: Antiviral activity against R5 tropic HIV1 BaL infected in human TZM-b1 cells after 2 hrs by luciferase assay. Conditions: Human immunodeficiency virus 1, BaL, TZM-b1, 2 h. The format is functional, organism-based.
The subject of data set [10] is Human immunodeficiency virus 1. The data set can be described thus: Antiviral activity against R5 tropic HIV1 YU.2 infected in human PBMC assessed as inhibition of p24 antigen production after 2 hrs by ELISA. The format is functional, organism-based. The settings on record: Human immunodeficiency virus 1, YU.2, 2 h. Background: In an ELISA, binding on a coated surface is turned into a signal by an enzyme label.

Data set [11] concerns Human immunodeficiency virus 1. The data set is described as follows: Antiviral activity against X4 tropic HIV1 RF infected in human PBMC assessed as inhibition of p24 antigen production after 2 hrs by ELISA. The settings on record: Human immunodeficiency virus 1, RF. The format is functional, organism-based.
Data set [12] relates to Human immunodeficiency virus 1. The data set is described as follows: Antiviral activity against X4 tropic HIV1 3B infected in human TZM-b1 cells after 2 hrs by luciferase assay. The format is functional, organism-based. Conditions: Human immunodeficiency virus 1, 3B, TZM-b1, 2 h.
Data set [13] relates to Human immunodeficiency virus 1. The data set is described as follows: Antiviral activity against X4 tropic HIV1 NL4.3 infected in human PBMC assessed as inhibition of p24 antigen production after 2 hrs by ELISA. The format is functional, organism-based. The settings on record: Human immunodeficiency virus 1, NL4.3, 2 h.
Data set [14] deals with Human immunodeficiency virus 1. The data set can be described thus: Antiviral activity against R5 tropic HIV1 R8.BaL infected in human PBMC assessed as inhibition of p24 antigen production after 2 hrs by ELISA. Conditions: Human immunodeficiency virus 1, R8.BaL. The format is functional, organism-based.
Data set [15] concerns Human immunodeficiency virus 1. The data set can be described thus: Antiviral activity against HIV1 isolate 8415-2 harboring reverse transcriptase K65R mutant co-expressing M184V mutant infected in human TZM-b1 cells after 2 hrs by luciferase assays. The format is functional, organism-based. The settings on record: Human immunodeficiency virus 1, isolate 8415-2, TZM-b1, 2 h.

The source made the active and inactive calls. No cut-off for these calls is given here. Some results are limits rather than exact numbers.

In general, IC50 refers to the concentration that inhibits the measured activity by half.

On to `Cc1cc(C)c(Nc2ccnc(Nc3ccc(C#N)cc3)n2)c(C)c1` [DAPIVIRINE], for which the Activity entry (in data set [1]; in the data set with PBMC) was “Non-toxic” throughout. Further, the IC50 turned out to be 0.15 nM in [2]; 0.37 nM in data set [3]; 0.84 nM in [6]; 0.19 nM in data set [7]; 8.34 nM in [8] (Human immunodeficiency virus 1, A17, TZM-b1, 2 h); 0.8 nM in [9]. Besides, the IC50 in data set [10] was 1.11 nM; in [11], 1.48 nM; in data set [12] it was 0.53 nM; in data set [13] it was 1.15 nM; in [14], 1.09 nM. For the same compound, the “Ratio IC50” value in data set [4] is given as 17. The outcome in data set [5] was inactive.
As to `C[C@H](Cn1cnc2c(N)ncnc21)OCP(=O)(O)O` [TENOFOVIR ANHYDROUS], the Activity result (in [1]; in the data set on PBMC) was “Non-toxic” each time. Further, the IC50 in [2] was 3340 nM; in data set [3], 6690 nM; in [15], 820 nM; in data set [5] (Human immunodeficiency virus 1, isolate 71361-1, TZM-b1, 2 h) it was above 30000 nM; in data set [6], 4030 nM; in [7], 4590 nM. Also, the 50% inhibitory concentration (IC50) in data set [9] is 2520 nM; in data set [10] it was 884 nM; in data set [11], 1600 nM; in [12], 2300 nM; in [13] it was 1400 nM; in [14], 1010 nM.
Regarding `CC(C)=CCOc1cc(NC(=S)c2ccoc2C)ccc1Cl` [UC 781], the Activity result (in data set [1]; in the data set with PBMC) was “Non-toxic” each time. For the same compound, the IC50 was found to be 5.87 nM in data set [2]; 10.2 nM in data set [3]; 6.01 nM in data set [6]; 5.86 nM in data set [7]; 9.34 nM in data set [9]; 11.2 nM in [10]. Also, the IC50 in data set [11] came to 9.2 nM; in data set [12], 7.99 nM; in data set [13] it was 17.6 nM; in [14], 10.2 nM. In data set [8], the outcome was inactive.

The values are drawn from ChEMBL document CHEMBL1687731, “Reverse transcriptase inhibitors as potential colorectal microbicides” (Antimicrob Agents Chemother, 2009).
